According to patent US20080221070A1, “METHODS AND COMPOUNDS FOR THE TARGETED DELIVERY OF AGENTS TO BONE FOR INTERACTION THEREWITH” (priority 2007, published 2008):

How the values were obtained:
[1] = test system: bilaterally ovariectomized (OVX) rats; experiment: Uterine mass and uterine mass to body weight ratio in OVX rats; assay type: in vivo, Sprague-Dawley female rats; conditions: for effect on uterine mass to body weight ratio: FIG. 9
Method: (§1) Animals. Six month old, bilaterally ovariectomized (OVX) or sham operated Sprague-Dawley female rats (Harlan Laboratories, Indianapolis, Ind.) were maintained at the University of Louisville Research Resources Center at 22° C. with a 12-h light/dark cycle and ad libitum access to tap water and rodent chow (Purina Laboratory Rodent Diet 5001). All animal procedures were approved by the Institutional Animal Care and Use Committee, which is certified by the American Association for Accreditation of Laboratory Animal Care.
(§2) In vivo experiments were conducted in order to investigate the efficacy of compounds of the presently-disclosed subject matter. In all of the experiments, OVX and sham operated rats were randomly divided into groups of 5-7 animals. In all of the studies experimental groups included: i) Sham-operated control (euthanized six weeks post surgery as a pretreatment control), ii) OVX control (euthanized six weeks post surgery as a pretreatment control), iii) Sham control receiving vehicle, iv) OVX control receiving vehicle, v) OVX receiving 17-ethinyl estradiol (equimolar concentration with a selected test compound), vi) OVX receiving alendronate (1.6 mg/kg), and vii) OVX receiving parathyroid hormone 1-34 (PTH) (80 μg/kg). 17-ethinyl estradiol (17 EE) is a free estrogenic agent known to be orally active, and can serve as an example of an anti-catabolic agent. Alendronate (Alen) is a bisphosphonate that is currently used to treat osteoporosis (e.g., Fosamax®, Merck & Co., Inc,), and can serve as an example of an anti-catabolic agent. Parathyroid hormone 1-34 (PTH) is an agent that can serve as an example of an anabolic agent. All compounds and vehicle (1% DMSO in corn oil) were administered three times per week orally by gavage except for PTH which was administered via a subcutaneous injection in a volume of 0.5 ml/kg body mass thrice per week. Compound administration was initiated 6 weeks following surgery and lasted for 6 weeks (18 doses total).
(§3) Compounds of the presently-disclosed subject matter were orally administered to OVX rats at various doses. As indicated above all BTE's were administered three times per week for 6 weeks.
(§4) Following 6 weeks of treatment, blood was obtained from each animal via cardiac puncture following an overnight fast and animals were subsequently euthanized via carbon dioxide asphyxiation. Blood was centrifuged immediately and the obtained serum samples were aliquoted and stored at −70° C. prior to analysis. Uteri were removed and fresh weights were obtained. Uterine masses were normalized to body mass at the end of the experiment. The left and right femora and left and right tibiae were subsequently collected from each animal, cleaned of soft tissue, and stored in saline at 4° C. prior to analysis.
Uterine Mass and Body Weight. […] Uterine mass can be used to as a measure of estrogenic effect occurring in a tissue outside the bone in response to treatment with a test compound or composition. Generally, a lower uterine mass can be associated with a decreased risk of adverse side effects associated with the test compound or composition. A ratio of uterine mass to body weight can be used to correct for any increase in uterine size attributable to the relative size of the individual animal. Body weight and/or uterine mass also serve as an indirect measures of toxicity of a test compound.

[2] = test system: bilaterally ovariectomized (OVX) rats; experiment: RatLaps ELISA for C-telopeptide fragments of collagen type I (CTX-I) in serum; assay type: in vivo, Sprague-Dawley female rats; conditions: Formulas 66 and 67 at 250 μg/kg doses, 17-ethinyl estradiol equimolar, FIG. 16
Method: as §1
as §2, with “All compounds and vehicle (1% DMSO in corn oil) were administered three times per week orally by gavage except for PTH which was administered via a subcutaneous injection in a volume of 0.5 ml/kg body mass thrice per week. Compound administration was initiated 6 weeks following surgery and lasted for 6 weeks (18 doses total).” left out
RatLaps™ ELISA for C-telopeptide Fragments of Collagen Type I (CTX-I). […] Bone resorption (CTX-I) was quantitatively assessed in rat serum using the commercially available RatLaps™ ELISA KIT from Nordic Bioscience Diagnostics A/S (Herlev, Denmark) as recommended by the manufacturer.

[3] = Hydroxyapatite (HA) Binding Assay; conditions: binding to hydroxyapatite; 10^−5 M analyte, 50 mM Tris-HCl pH 7.4, 1% DMSO; tetracycline reference
From the text: The supernatant was transferred to another microcentrifuge tube.

[4] = test system: bilaterally ovariectomized (OVX) rats; experiment: Volume fraction, ex vivo micro-computed tomography of tibia; assay type: in vivo, Sprague-Dawley female rats; conditions: for bone density by trabecular volume fraction: ex vivo micro-CT, compared to OVX animals, FIG. 14; for bone density in three-dimensional micro-CT images: reconstructed images, FIG. 15
Method: as §1, §2, §4
Volume Fraction—Ex vivo micro-computed tomography (μCT). Volume fraction is a representative value for the amount of bone that occupies a given volume or space. […]

[5] = test system: bilaterally ovariectomized (OVX) rats; experiment: Rat Osteocalcin EIA (serum); assay type: in vivo, Sprague-Dawley female rats; conditions: versus OVX controls; FIG. 17
Method: as §1
(§5) In vivo experiments were conducted in order to investigate the efficacy of compounds of the presently-disclosed subject matter. In all of the experiments, OVX and sham operated rats were randomly divided into groups of 5-7 animals. […]
Rat Osteocalcin EIA. […] Rat serum osteocalcin levels were measured using the Rat Osteocalcin EIA Kit from Biomedical Technologies, Incorporated (Stoughton, Mass.) as recommended by the manufacturer.

[6] = test system: bilaterally ovariectomized (OVX) rats; experiment: Bone mechanical competence indentation test; assay type: in vivo, Sprague-Dawley female rats; conditions: proximal tibial metaphysis, present-tense statement, no data
Method: as §1
In vivo experiments were conducted in order to investigate the efficacy of compounds of the presently-disclosed subject matter. In all of the experiments, OVX and sham operated rats were randomly divided into groups of 5-7 animals. In all of the studies experimental groups included: i) Sham-operated control (euthanized six weeks post surgery as a pretreatment control), ii) OVX control (euthanized six weeks post surgery as a pretreatment control), iii) Sham control receiving vehicle, iv) OVX control receiving vehicle, v) OVX receiving 17-ethinyl estradiol (equimolar concentration with a selected test compound), vi) OVX receiving alendronate (1.6 mg/kg), and vii) OVX receiving parathyroid hormone 1-34 (PTH) (80 μg/kg). 17-ethinyl estradiol (17 EE) is a free estrogenic agent known to be orally active, and can serve as an example of an anti-catabolic agent. […]

[7] = test system: bilaterally ovariectomized (OVX) rats; experiment: Regional femoral density via Archimedes' Principle; assay type: in vivo, Sprague-Dawley female rats
Method: as §1, §2
Following 6 weeks of treatment, blood was obtained from each animal via cardiac puncture following an overnight fast and animals were subsequently euthanized via carbon dioxide asphyxiation. Blood was centrifuged immediately and the obtained serum samples were aliquoted and stored at −70° C. prior to analysis. Uteri were removed and fresh weights were obtained. Uterine masses were normalized to body mass at the end of the experiment. […]
Regional Femoral Density via Archimedes' Principle. […] Briefly, each femur was measured with a Cen-Tech Digital Caliper and a cut was made from each end at 20% of the length of the femur plus half the width of the blade. Subsequently, the bone marrow was washed out of the femoral diaphysis and the Archimedes density for each of the three femoral regions was determined as described above.

[8] = test system: bilaterally ovariectomized (OVX) rats; experiment: Lipid metabolism (total cholesterol, HDL, LDL) in rat serum; assay type: in vivo, Sprague-Dawley female rats; conditions: present-tense statement, no data
Method: as §1, §5
Quantitative Determination of Lipid Metabolism (Total Cholesterol HDL, and LDL) in Rat Serum. Total cholesterol, high-density lipoprotein (HDL), and low-density lipoprotein (LDL) were quantitatively determined in the serum of rats in order to evaluate the extraosseous effects of estrogen treatment on lipid metabolism. […]

[9] = Body weight of OVX rats during treatment; assay type: in vivo, Sprague-Dawley female rats
Method: as §1, §2, §3, §4
Uterine Mass and Body Weight. […]

ICR Swiss mice = experiment: Periosteal bone formation in mouse calvarial injection model; assay type: in vivo; conditions: subcutaneous over calvariae; histomorphometry; present-tense statement, no data
Method: Stimulation of Periosteal Bone Formation in a Mouse Calvarial Injection Model. The anabolic (bone formation) potential of compounds of the presently-disclosed subject matter are evaluated in the mouse calvarial injection model. Briefly, 4-week-old ICR Swiss mice are injected subcutaneously over the surface of the calvariae with compounds of the presently-disclosed subject matter at concentrations of 0, 1, 3, and 10 mg/kg/day for 5 days (twice a day). Microtubule inhibitor TN-16 (5 mg/kg/day for 2 days, twice a day) are used as a positive control. Mice are sacrificed two weeks after the injections are completed. Dissected calvarial samples are fixed in 10% phosphate-buffered formalin for 2 days, decalcified in 10% EDTA for 2 weeks and then embedded in paraffin. Histological sections are cut and stained with H&E and orange G. New woven bone formation (new bone area) is quantified by histomorphometry using the OsteoMeasure system (OsteoMetrics Inc., Atlanta, Ga.).

[10] = test system: bilaterally ovariectomized (OVX) rats; experiment: Femoral density via Archimedes' Principle (whole bone); assay type: in vivo, Sprague-Dawley female rats; conditions: right femora
Method: as §1, §2
Following 6 weeks of treatment, blood was obtained from each animal via cardiac puncture following an overnight fast and animals were subsequently euthanized via carbon dioxide asphyxiation. Blood was centrifuged immediately and the obtained serum samples were aliquoted and stored at −70° C. prior to analysis. Uteri were removed and fresh weights were obtained. […]
Femoral Density via Archimedes' Principle. […] Densities were determined using Archimedes' Principle according to the following formula: density=[mass of hydrated femur/(mass of hydrated femur−mass of hydrated femur submerged in water)]×density of distilled water at a given temperature (See Keenan, et al. Comparison of bone density measurement techniques: DXA and Archimedes' principle. J Bone Miner Res 1997; 12:1903-7.). […]

[11] = OVX rats, oral, test compounds 25 or 250 μg/kg, 17-ethinyl estradiol equimolar, 3 times per week for 6 weeks, FIG. 8
[12] = OVX rats, oral, test compounds 25 or 250 μg/kg, 17-ethinyl estradiol equimolar, 3 times per week for 6 weeks
[13] = proximal and distal left femur and left femoral diaphysis, oral 25 or 250 μg/kg, FIGS. 11, 12, 13
[14] = oral 25 or 250 μg/kg, 3 times per week for 6 weeks, FIG. 7
[15] = proximal and distal left femur, FIGS. 5 and 6
[16] = oral 3 times per week for 6 weeks, FIG. 1

Compound: C#C[C@]1(O)CC[C@H]2[C@@H]3CCc4cc(O)ccc4[C@H]3CC[C@@]21C [17-ethinyl estradiol, reference compound]
- effect on uterine mass [1, 11]: induced an increase
- effect on uterine mass to body weight ratio [1, 12]: induced an increase
- production of CTX-I (bone resorption) [2]: decreased the production of CTX-1 to below sham levels

Compound: C[C@]12CC[C@@H]3c4ccc(O)cc4CC[C@H]3[C@@H]1CC[C@@H]2O [17,β-estradiol]
- Binding Index [3]: −8

Compound: CCCCOP(=O)(OCCCC)Oc1ccc2c(c1)CCC1C2CC[C@]2(C)C1CC[C@H]2OCCC(=O)Nc1ccc(OC)c(C(N)=O)c1O (stereo partly drawn) [Formula 66]
- bone density by trabecular volume fraction [4]: increased
- bone density in three-dimensional micro-CT images [4]: affected an increase
- serum osteocalcin levels [5]: lower than in OVX controls
- effect on uterine mass [1, 11]: limited or no effect
- effect on uterine mass to body weight ratio [1, 12]: limited or no effect
- bone strength [6]: increase
- production of CTX-I (bone resorption) [2]: do not inhibit
- regional bone density [7, 13]: increased
- effect on lipid metabolism [8]: limited or no effect
- effect on body weight [9, 14]: limited or no effect
- new bone area (ICR Swiss mice): increase
- whole bone density ([10]; oral 25 or 250 μg/kg, FIG. 10): in the same ranges as those animals receiving 17-ethinyl estradiol (17 EE), Alendronate (Alen), or Parathyroid hormone 1-34 (PTH)

Compound: NC(=O)c1c(OCc2ccccc2)ccc(N)c1O [BTA-3]
- effect on uterine mass ([1]; rat, in vivo, po): no effect
- regional bone density [7, 15]: not significantly effected
- effect on body weight [9, 16]: no effect
- whole bone density ([10]; FIG. 4): not significantly effected

Compound: COc1ccc(NC(=O)CCO[C@@H]2CCC3C4CCc5cc(OP(=O)(OCc6ccccc6)OCc6ccccc6)ccc5C4CC[C@]32C)c(O)c1C(N)=O (stereo partly drawn) [Formula 67]
- bone density by trabecular volume fraction [4]: increased
- bone density in three-dimensional micro-CT images [4]: affected an increase
- serum osteocalcin levels [5]: lower than in OVX controls
- effect on uterine mass [1, 11]: limited or no effect
- effect on uterine mass to body weight ratio [1, 12]: limited or no effect
- bone strength [6]: increase
- production of CTX-I (bone resorption) [2]: do not inhibit
- regional bone density [7, 13]: increased
- effect on lipid metabolism [8]: limited or no effect
- effect on body weight [9, 14]: limited or no effect
- new bone area (ICR Swiss mice): increase
- whole bone density ([10]; oral 25 or 250 μg/kg, FIG. 10): in the same ranges as those animals receiving 17-ethinyl estradiol (17 EE), Alendronate (Alen), or Parathyroid hormone 1-34 (PTH)

Compound: COc1ccc(N)c(O)c1C(N)=O [BTA-2]
- effect on uterine mass ([1]; rat, in vivo, po): no effect
- regional bone density [7, 15]: not significantly effected
- effect on body weight [9, 16]: no effect
- whole bone density ([10]; FIG. 4): not significantly effected
